System: NEC model in neonatal rats
Test: Induction and evaluation of NEC in neonatal rats (formula feeding by oral gavage plus hypoxia)
Assay type: in vivo, Sprague-Dawley rats
Conditions: HMO fractions/subfractions added to formula at their respective concentrations in pooled HMO at 10 mg/ml, 96 h post-partum
Excerpt: Instead, we tested HMO in a well-established NEC model with neonatal Sprague-Dawley rats. We induced time-pregnant rats by oxytocin and randomized their pups into the different intervention groups. Some pups were left with the dam to serve as breast-fed controls; others were formula-fed by oral gavage twice daily. All pups were exposed to hypoxia thrice daily. On day-of-life 4, we sacrificed the pups and analyzed their intestines for macroscopic and microscopic signs of NEC. The ileum was prepared for H&E staining and evaluated blindly by three independent investigators to determine NEC pathology scores. […] We then isolated HMO from pooled human milk and added them to the formula.
Each HMO fraction and subfraction was tested at concentrations that were based on their relative abundance in pooled HMO at 10 mg/mL, the average concentration in mature human milk. Assuming an average molecular weight of 1,000 g/mol for pooled HMO, 10 mg/mL is equivalent to 10 mM.
Briefly, pregnant time-dated Sprague-Dawley rats were induced at term using Pitocin (1-2 U per animal). Immediately after birth, neonates were randomized into one of the different study groups. Animals in the dam-fed (DF) group remained with the dam. All other animals were separated from the dam, housed in a temperature- and humidity-controlled incubator and orally gavaged with a special rodent formula (0.2 ml) twice daily. […] A 0.5 cm section of the terminal ileum was prepared for H&E staining per standard protocols and scored blindly by three investigators based on morphological changes that included epithelial sloughing, villus oedema, infiltration of neutrophils, apoptosis of villus enterocytes, crypt hyperplasia and misaligned nuclei in the epithelium. […] Pathology scores were plotted for each animal and the mean calculated per group. […] Differences between the groups were calculated by one-way ANOVA with the Kruskal-Wallis test and Dunn's multiple comparison test. […]

In the case of CC(=O)N[C@H]1[C@H](O[C@H]2[C@@H](O)[C@@H](CO)O[C@@H](O[C@@H]([C@H](O)[C@@H](O)C=O)[C@H](O)CO)[C@@H]2O)O[C@H](CO[C@]2(C(=O)O)C[C@H](O)[C@@H](NC(C)=O)[C@H]([C@H](O)[C@H](O)CO)O2)[C@@H](O)[C@@H]1O[C@@H]1O[C@H](CO)[C@H](O)[C@H](O[C@]2(C(=O)O)C[C@H](O)[C@@H](NC(C)=O)[C@H]([C@H](O)[C@H](O)CO)O2)[C@H]1O [DSLNT, Disialyllacto-N-tetraose], the ileum pathology score (listed as #2) is reported as “significantly reduced NEC”, the ileum pathology score (listed as HMO 2) is reported as 0.64±0.41 and the ileum pathology score (listed as HMO #2) is reported as “significantly reduced NEC pathology scores”.
